Measurements published in ChEMBL document CHEMBL1148303, “Design and synthesis of alpha-aryloxy-alpha-methylhydrocinnamic acids: a novel class of dual peroxisome proliferator-activated receptor alpha/gamma agonists” (J Med Chem, 2004).
pEC50, pIC50: −log10 of the molar value.

What was measured:
[1] = target: T1, Peroxisome proliferator-activated receptor delta (Homo sapiens, UniProt Q03181); type: cell-based, CV-1; details: for EC50: cv-1
T1 sequence (Q03181 whole entry): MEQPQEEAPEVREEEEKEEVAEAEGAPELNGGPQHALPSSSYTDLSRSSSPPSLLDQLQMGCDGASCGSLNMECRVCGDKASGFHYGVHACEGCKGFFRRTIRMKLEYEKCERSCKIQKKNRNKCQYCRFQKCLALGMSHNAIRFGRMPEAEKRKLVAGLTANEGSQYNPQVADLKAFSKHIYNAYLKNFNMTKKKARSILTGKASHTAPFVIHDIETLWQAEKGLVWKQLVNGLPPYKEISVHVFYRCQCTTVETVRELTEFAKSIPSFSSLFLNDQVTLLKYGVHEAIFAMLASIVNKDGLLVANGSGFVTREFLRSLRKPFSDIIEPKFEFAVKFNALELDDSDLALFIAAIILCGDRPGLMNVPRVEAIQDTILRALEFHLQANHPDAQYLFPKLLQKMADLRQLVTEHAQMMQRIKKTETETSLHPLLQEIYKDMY

[2] = target: T1, Peroxisome proliferator-activated receptor delta; type: functional
[3] = target: T1, Peroxisome proliferator-activated receptor delta; type: cell-based; details: cv-1
[4] = target: T1, Peroxisome proliferator-activated receptor delta
[5] = target: T2, Peroxisome proliferator-activated receptor alpha (Homo sapiens, UniProt Q07869); type: cell-based, CV-1
T2 sequence (Q07869 whole entry): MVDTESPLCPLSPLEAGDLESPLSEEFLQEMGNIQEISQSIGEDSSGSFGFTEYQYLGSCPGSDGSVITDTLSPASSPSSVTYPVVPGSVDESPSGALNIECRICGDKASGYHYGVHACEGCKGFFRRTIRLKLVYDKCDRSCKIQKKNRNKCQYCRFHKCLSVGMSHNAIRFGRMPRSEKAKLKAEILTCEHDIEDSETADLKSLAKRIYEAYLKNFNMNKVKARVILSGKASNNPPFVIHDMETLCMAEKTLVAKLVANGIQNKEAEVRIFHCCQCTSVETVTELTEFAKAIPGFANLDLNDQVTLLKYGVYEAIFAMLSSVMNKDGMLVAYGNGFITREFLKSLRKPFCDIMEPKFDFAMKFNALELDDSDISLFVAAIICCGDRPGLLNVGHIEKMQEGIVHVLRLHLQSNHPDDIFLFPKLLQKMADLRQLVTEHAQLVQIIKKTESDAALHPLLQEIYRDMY

[6] = target: T2, Peroxisome proliferator-activated receptor alpha; type: functional
[7] = target: T1, Peroxisome proliferator-activated receptor delta; remark: listed apart in the source

SMILES	EC50 [1]	pIC50 [2]	EC50 [3]	pEC50 [5]	pIC50 [6]	further results
Cc1oc(C2CCCCC2)nc1CCOc1ccc(C[C@](C)(Oc2ccccc2)C(=O)O)cc1	Not Active	5.01				
Cc1oc(-c2ccccc2)nc1CCOc1ccc(C[C@@](C)(Oc2ccccc2)C(=O)O)cc1		5.57				pEC50 ([1]; read-out: EC50): 5.52
CCC(Cc1ccc(OCCc2nc(-c3ccccc3)oc2C)cc1)(Oc1ccccc1)C(=O)O (stereo not given)	Not Active	5.29		7.12	6.33	
Cc1oc(-c2ccccc2)nc1CCOc1ccc(CC(Oc2ccccc2)C(=O)O)cc1 (stereo not given)	Not Active	5.15		6.08	5.96	
Cc1oc(-c2ccccc2)nc1CCOc1ccc(OC(C)(Cc2ccccc2)C(=O)O)cc1 (stereo not given)		5.35	Not Active			
Cc1oc(-c2cccc(-c3ccccc3)c2)nc1CCOc1ccc(CC(C)(Oc2ccccc2)C(=O)O)cc1 (stereo not given)			Not Active	8.15	6.78	IC50 [7]: Not Active
Cc1oc(-c2cccs2)nc1CCOc1ccc(CC(C)(Oc2ccccc2)C(=O)O)cc1 (stereo not given)			Not Active			
Cc1oc(-c2cccs2)nc1CCOc1ccc(C[C@](C)(Oc2ccccc2)C(=O)O)cc1 [LY-510929]			Not Active			

Now from value to molecule, other results behind:

EC50 [1]	pIC50 [2]	EC50 [3]	pEC50 [5]	pIC50 [6]	SMILES	further results
		Not Active			Cc1oc(C2CCCCC2)nc1CCOc1ccc(CC(C)(Oc2ccccc2)C(=O)O)cc1 (stereo not given)	IC50 [4]: Not Active
		Not Active	7.16	6.30	Cc1oc(-c2ccc(-c3ccccc3)cc2)nc1CCOc1ccc(CC(C)(Oc2ccccc2)C(=O)O)cc1 (stereo not given)	IC50 [4]: Not Active
Not Active					Cc1oc(-c2cccs2)nc1CCOc1ccc(C[C@@](C)(Oc2ccccc2)C(=O)O)cc1	
Not Active	5.26				Cc1oc(-c2ccccc2)nc1CCOc1ccc(C[C@](C)(Oc2ccccc2)C(=O)O)cc1	
	5.15	Not Active			Cc1oc(-c2ccccc2)nc1CCOc1ccc(CC(C)(Oc2ccccc2)C(=O)O)cc1 (stereo not given)	
Not Active	5.14		5.59	5.73	CCCCC(Cc1ccc(OCCc2nc(-c3ccccc3)oc2C)cc1)(Oc1ccccc1)C(=O)O (stereo not given)	
